Earlier results, collected in patent publication US9750827B2, “Near-infrared dye-conjugated hyaluronic acid derivative and contrast agent for optical imaging including them” (CANON KABUSHIKI KAISHA, priority 2013, dated 2017).

Conditions: known in the art

CC1(C)C(/C=C/C=C/C=C/C=C2/N(CCCCS(=O)(=O)[O-])c3ccc4ccccc4c3C2(C)C)=[N+](CCCCS(=O)(=O)[O-])c2ccc3ccccc3c21.[Na+] [ICG, indocyanine green]
half-life in blood: about several minutes
